Assay results published in PubChem BioAssay (NCI).
Several values for one entry are separate records, joined by “and”; a condition that tells them apart may be missing. Equal values may be shown once.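 Briefly, cells in 96-well plates were exposed to five compound concentrations for 48 h, and endpoints were estimated by linear interpolation. GI50 marks 50% less growth. The concentration for full growth arrest is given as TGI.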

Tests used:
Assay in all cases: growth of human tumour cells (NCI), 48 h
[1] = tested on: SK-MEL-5 melanoma
[2] = tested on: HT29 colon
[3] = tested on: EKVX NSCLC
[4] = tested on: A498 renal
[5] = tested on: TK-10 renal
[6] = tested on: SF-539 CNS
[7] = tested on: NCI-H23 lung
[8] = tested on: SNB-19 CNS
[9] = tested on: RPMI-8226 leukemia
[10] = tested on: HL-60(TB) leukemia

Compound	GI50 [1] [µM]	TGI [1] [µM]	GI50 [2] [µM]	TGI [2] [µM]	GI50 [3] [µM]	TGI [3] [µM]	GI50 [4] [µM]	TGI [4] [µM]	GI50 [5] [µM]	TGI [5] [µM]	GI50 [6] [µM]	TGI [6] [µM]	GI50 [7]	TGI [7] [µM]	GI50 [8] [µM]	TGI [8] [µM]	GI50 [9] [µM]	TGI [9] [µM]	GI50 [10] [µM]	TGI [10] [µM]
CN(Cc1cnc(N)nc1N)c1ccc(C(=O)O)cc1	> 100	> 100	> 100	> 100	> 100	> 100	4.25	> 100	> 100	> 100	> 100	> 100	> 100 µM	> 100	> 100	> 100	> 100	> 100	> 100	> 100
COc1ccc(Cl)cc1Nc1nc(C(F)(F)F)ccc1C(=O)N/N=C/c1ccc([N+](=O)[O-])cc1	1.98	4.86	2.2	5.49	2.01	9.27	1.86	6.45	1.22	5.88	3.05	19.1	2.05 µM	7.52	2.33	13	1.6	6.55	2.14	7.18
CCNC(C)(C)C(SS)c1ccc(Br)cc1 (stereo not drawn)		> 100		69.3		> 100		> 100		> 100		> 100		> 100		> 100		76.1		53
CC1(C)C(c2ccccc2)=NN(O)c2ccccc21		> 100		> 100		> 100		> 100		> 100		> 100		> 100		> 100		> 100		> 100
Cc1c(C)c2c(c(C)c1NC(=O)/C=C\C(=O)O)CCC(C)(CCCC(C)CCCC(C)CCCC(C)C)O2 (stereo not drawn)	1.73	3.15	2.61	8.24	1.57	3.37	1.38	2.7	1.84	3.39	1.68	3.11	2.1 µM	4.52	1.94	3.47	2.17	13.8	1.38	6.82
COc1c(C2=NC(C(C)C)CO2)ccc2ccccc12 (stereo not drawn)		36.3		> 100		> 100		> 100		> 100		> 100		> 100		> 100		65.6		42.9
O=C(C/C(=N\NC(=O)C[n+]1ccccc1)C(=O)Nc1nc2ccc([N+](=O)[O-])cc2s1)CC(c1ccccc1)c1c(O)c2ccccc2oc1=O (stereo not drawn)		> 100		> 100		> 100		> 100		> 100		> 100		> 100		> 100		> 100		> 100
Cc1cc(=O)oc2c(CN3CCCCC3)c(O)ccc12		> 100		> 100		> 100		> 100		> 100		> 100		> 100		> 100		> 100		> 100
O=C(/C=C/C12c3ccccc3C(c3ccccc31)C1C(=O)N(c3ccccc3)C(=O)C12)c1ccc(Cl)cc1 (stereo not drawn)	1.95	4.07	1.86	7.88	1.85	9.89	1.16	2.44	3.18	25.1	1.69	3.79	2.61 µM	13.2	2.68	> 100	1.16	4.68	0.795	5.18
C[C@@H](C1CCC2C3C(=CC(=O)[C@@]21C)[C@H](C)[C@]1(CCC(=O)O1)C1OC31)[C@H]1C[C@]2(C)O[C@@](C)(O1)OC2(C)C (stereo partly drawn)		> 100		> 100		> 100		> 100		> 100		> 100		> 100		> 100		> 100		> 100
CC(=O)OCCOCNC(=S)N/N=C/c1ccc2ccccc2n1		60.8		> 100		> 100		> 100		> 100		> 100		> 100		> 100		> 100		> 100
CC1(C)C(c2ccccc2)C12CCC1(C2=O)C(c2ccccc2)C1(C)C (stereo not drawn)		37.9		35		69.3		90.7		> 100		75.2		44.6		76.5		33.3		37.4
Cc1ccc(NC(=O)CC/C(CC(=O)C(C)(C)C)=N/NC(=O)C(N)=O)cc1C		> 100		> 100		> 100		> 100		> 100		> 100		> 100		> 100		> 100		> 100
COC1C(O)C(C)OC(OC2C(Oc3cccc4c(O)c5c(=O)oc6ccc(C)c7c(=O)oc(c34)c5c67)OC(C)C3O[C@H](c4ccccc4)OC32)C1O (stereo partly drawn)		1.8		10.2		5.99		1.11		7.37	0.198	2.23	0.32 µM and 0.2 µM	4.75		19.2	0.115	11.1		4.53
CC1(C)CCC[C@@]2(C)C1C[C@H](O)[C@@]1(C)O[C@@](C)([C@H](O)CO)CCC21 (stereo partly drawn)		44		86		> 100		77.1		> 100		> 100		> 100		> 100		45.2		48.1
Cc1cc(=O)n(-c2ccccc2)c(=O)o1		> 100		> 100		> 100		> 100		> 100		> 100		> 100		> 100		> 100		> 100
O=C1c2ccccc2NC(c2cc(Cl)cc(Cl)c2O)N1CCc1ccccn1 (stereo not drawn)		> 100		> 100		> 100		> 100		> 100		> 100		> 100		> 100		> 100		> 100
